Assay results taken from US20080051429A1, “USE OF 4-AMINO-PIPERIDINES FOR TREATING SLEEP DISORDERS” (priority 2006, published 2008).
Like-named read-outs stand apart in the source and are kept apart here.

How the values were obtained:
5HT2B = 5HT2B (Homo sapiens, UniProt P41595); test: R-SAT broad profiling; type: cell-based; parameters: expressed in transfected cells; host or cells: NIH3T3; details: read-out: pEC50 or pIC50 (converted)
Method: (§1) The functional receptor assay, Receptor Selection and Amplification Technology (R-SAT), was used (with minor modifications from that previously described U.S. Pat. No. 5,707,798) to screen compounds for efficacy at the 5-HT2A receptor. Briefly, NIH3T3 cells were grown in 96 well tissue culture plates to 70-80% confluence. Cells were transfected for 12-16 hours with plasmid DNAs using superfect (Qiagen Inc.) as per manufacture's protocols. R-SAT's were generally performed with 50 ng/well of receptor and 20 ng/well of Beta-galactosidase plasmid DNA. All receptor and G-protein constructs used were in the pSI mammalian expression vector (Promega Inc) as described in U.S. Pat. No. 5,707,798. The 5HT2A receptor gene was amplified by nested PCR from brain cDNA using the oligodeoxynucleotides based on the published sequence (see Saltzman et. al. Biochem. Biophys. Res. Comm. 181:1469-78 (1991)). Large-scale transfections, cells were transfected for 12-16 hours, then trypsinized and frozen in DMSO. Frozen cells were later thawed, plated at 10,000-40,000 cells per well of a 96 well plate that contained drug. With both methods, cells were then grown in a humidified atmosphere with 5% ambient CO2 for five days. Media was then removed from the plates and marker gene activity was measured by the addition of the beta-galactosidase substrate ONPG (in PBS with 5% NP-40). The resulting colorimetric reaction was measured in a spectrophotometric plate reader (Titertek Inc.)at […]. All data were analyzed using the computer program XLFit (IDBSm). Efficacy is the percent maximal repression compared to repression by a control compound (ritanserin in the case of 5HT2A). pIC50 is the negative of the log(IC50), where IC50 is the calculated concentration in Molar that produces 50% maximal repression.
(§2) The R-SAT assay (described above in example 289) was used to investigate the selectivity of 4-(4-Fluoro-benzyl)-3-(4-isobutoxy-benzyl)-8-methyl-1-oxa-3,8-diaza-spiro[4.5]decan-2-one.

5HT1A = molecular target: T1, 5HT1A (Homo sapiens, UniProt P08908); test: R-SAT broad profiling; type: cell-based; parameters: expressed in transfected cells; host or cells: NIH3T3; details: agonist; read-out: pEC50 or pIC50 (converted)
T1 sequence (P08908 1-422): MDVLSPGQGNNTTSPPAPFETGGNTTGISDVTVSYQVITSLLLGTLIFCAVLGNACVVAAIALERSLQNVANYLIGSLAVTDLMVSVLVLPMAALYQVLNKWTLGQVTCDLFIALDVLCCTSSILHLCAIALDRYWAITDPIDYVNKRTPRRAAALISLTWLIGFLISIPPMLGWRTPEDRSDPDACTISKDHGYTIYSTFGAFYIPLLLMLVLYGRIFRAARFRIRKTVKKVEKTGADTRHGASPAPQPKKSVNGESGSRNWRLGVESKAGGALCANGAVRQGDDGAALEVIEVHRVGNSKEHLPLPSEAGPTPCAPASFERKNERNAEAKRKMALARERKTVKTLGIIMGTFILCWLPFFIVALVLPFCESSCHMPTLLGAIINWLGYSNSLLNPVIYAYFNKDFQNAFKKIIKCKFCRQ
Method: as §1, §2

Chain of 5HT2B (P41595 whole entry): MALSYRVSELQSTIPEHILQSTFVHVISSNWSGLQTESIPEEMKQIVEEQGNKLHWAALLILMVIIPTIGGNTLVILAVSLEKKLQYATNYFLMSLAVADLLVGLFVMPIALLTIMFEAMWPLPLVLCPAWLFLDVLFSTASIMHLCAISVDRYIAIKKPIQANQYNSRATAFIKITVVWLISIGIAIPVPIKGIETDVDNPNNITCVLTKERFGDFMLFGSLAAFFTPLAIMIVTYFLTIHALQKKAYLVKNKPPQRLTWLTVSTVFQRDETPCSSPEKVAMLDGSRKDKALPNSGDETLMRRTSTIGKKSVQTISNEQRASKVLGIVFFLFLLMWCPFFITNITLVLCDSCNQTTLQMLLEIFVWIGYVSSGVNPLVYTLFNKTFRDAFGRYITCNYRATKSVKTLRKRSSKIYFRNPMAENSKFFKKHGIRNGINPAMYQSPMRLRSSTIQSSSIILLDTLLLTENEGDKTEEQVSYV

Q: Which EC50 (5HT2B; agonist) does the source give for CC(C)COc1ccc(CN2C(=O)OC3(CCN(C)CC3)C2Cc2ccc(F)cc2)cc1.Cl (racemic) [Example 69NLS75, 4-(4-Fluorobenzyl)-3-(4-isobutoxybenzyl)-8-methyl-1-oxa-3,8-diazaspiro[4.5]decan-2-one, hydrochloride] here?
A: > 3.16 µM

Q: What about the IC50 (5HT2B; antagonist) of the same molecule?
A: > 3.16 µM

Q: What about the IC50 (5HT2B; inverse) of the same molecule?
A: > 2.51 µM

Q: What about the EC50 (5HT1A) of the same molecule?
A: > 3.16 µM
